Experimental data reported in patent publication US20250195521A1 (Revolution Medicines, Inc., priority 2020, published 2025).

Experiments:
Assay type in all cases: cell-based, human
NCI-H358 (K-Ras G12C) = experiment: CellTiter-Glo cell viability assay, H358; conditions: Homo sapiens, NCI-H358, 120 h, read-out: H358 Cell Viability IC50, K-Ras G12C, 5-day treatment
Experimental: (§1) Note—The following protocol describes a procedure for monitoring cell viability of K-Ras mutant cancer cell lines in response to a compound of the invention. Other RAS isoforms may be employed, though the number of cells to be seeded will vary based on cell line used.
(§2) Test compounds (132.5 nL) were directly dispensed into the assay plates containing cells. […] On day 5, assay plates and their contents were equilibrated to room temperature for approximately 30 minutes. […] Luminescence was measured using the PerkinElmer Enspire. Data were normalized by the following: (Sample signal/Avg. DMSO)*100. The data were fit using a four-parameter logistic fit.

AsPC-1 (K-Ras G12D) [1] = experiment: CellTiter-Glo cell viability assay, AsPC-1; conditions: Homo sapiens, ASPC1, 120 h, read-out: AsPC-1 Cell Viability IC50
Experimental: as §1, §2

AsPC-1 (K-Ras G12D) [2] = experiment: Potency assay: pERK; conditions: Homo sapiens, ASPC1, read-out: pERK EC50
Experimental: The purpose of this assay is to measure the ability of test compounds to inhibit K-Ras in cells. […] This procedure measures a decrease in cellular pERK in response to test compounds. The procedure described below in NCI-H358 cells is applicable to K-Ras G12C.
NCI-H358 cells were grown and maintained using media and procedures recommended by the ATCC. On the day prior to compound addition, cells were plated in 384-well cell culture plates (40 μl/well) and grown overnight in a 37° C., 5% CO2 incubator. Test compounds were prepared in 10, 3-fold dilutions in DMSO, with a high concentration of 10 mM. On the day of assay, 40 nL of test compound was added to each well of cell culture plate using an Echo550 liquid handler (LabCyte®). Concentrations of test compound were tested in duplicate. After compound addition, cells were incubated 4 hours at 37° C., 5% CO2. Following incubation, culture medium was removed and cells were washed once with phosphate buffered saline.
In some experiments, cellular pERK level was determined using the AlphaLISA SureFire Ultra p-ERK1/2 Assay Kit (PerkinElmer). Cells were lysed in 25 μL lysis buffer, with shaking at 600 RPM at room temperature. Lysate (10 μL) was transferred to a 384-well Opti-plate (PerkinElmer) and 5 μL acceptor mix was added. After a 2-hour incubation in the dark, 5 μL donor mix was added, plate was sealed, and incubated 2 hours at room temperature. Signal was read on an Envision plate reader (PerkinElmer) using standard AlphaLISA settings. Analysis of raw data was carried out in Excel (Microsoft) and Prism (GraphPad). Signal was plotted vs. the decadal logarithm of compound concentration, and IC50 was determined by fitting a 4-parameter sigmoidal concentration response model.
In other experiments, cellular pERK was determined by In-Cell Western. Following compound treatment, cells were washed twice with 200 μL tris buffered saline (TBS) and fixed for 15 minutes with 150 μL 4% paraformaldehyde in TBS. Fixed cells were washed 4 times for 5 minutes with TBS containing 0.1% Triton X-100 (TBST) and then blocked with 100 μL Odyssey blocking buffer (LI-COR) for 60 minutes at room temperature. Primary antibody (PERK, CST-4370, Cell Signaling Technology) was diluted 1:200 in blocking buffer, and 50 μL was added to each well and incubated overnight at 4° C. Cells were washed 4 times for 5 minutes with TBST. Secondary antibody (IR-800CW rabbit, LI-COR, diluted 1:800) and DNA stain DRAQ5 (LI-COR, diluted 1:2000) were added and incubated 1-2 hours at room temperature. Cells were washed 4 times for 5 minutes with TBST. Plates were scanned on a Li—COR Odyssey CLx Imager. Analysis of raw data was carried out in Excel (Microsoft) and Prism (GraphPad). Signal was plotted vs. the decadal logarithm of compound concentration, and IC50 was determined by fitting a 4-parameter sigmoidal concentration response model.

SMILES | IC50 (NCI-H358 (K-Ras G12C)) [nM] | IC50 (AsPC-1 (K-Ras G12D) [1]) [nM] | EC50 (AsPC-1 (K-Ras G12D) [2]) [nM]
CCn1c(-c2cnccc2COC)c2c3cc(ccc31)-c1cc(O)cc(c1)C[C@H](NC(=O)[C@H](C(C)C)N(C)C(=O)CN(C)C(=O)[C@H]1CN1)C(=O)N1CCC[C@H](N1)C(=O)OCC(C)(C)C2 [Example 7, (2R)—N-(2-(((2S)-1-(((6^3S,4S)-1^1-ethyl-25-hydroxy-1^2-(4-(methoxymethyl)pyridin-3-yl)-10,10-dimethyl-5,7-dioxo-6^1,6^2,6^3,6^4,6^5,6^6-hexahydro-1^1H-8-oxa-1 (5,3)-indola-6 (1,3)-pyridazina-2 (1,3)-benzenacycloundecaphane-4-yl)amino)-3-methyl-1-oxobutan-2-yl) (methyl)amino)-2-oxoethyl)-N-methylaziridine-2-carboxamide] | 10 to 100 | 100 to 1000 | < 5000
CCn1c(-c2cnccc2COC)c2c3cc(ccc31)-c1cc(O)cc(c1)C[C@H](NC(=O)[C@H](C(C)C)N(C)C(=O)CN(C)C(=O)[C@H]1CN1Cc1ccccc1)C(=O)N1CCC[C@H](N1)C(=O)OCC(C)(C)C2 (stereo partly shown) [Example 9] | 10 to 100 | 1000 to 10000 | < 5000
CCn1c(-c2cnccc2COC)c2c3cc(ccc31)-c1cc(O)cc(c1)C[C@H](NC(=O)[C@H](C(C)C)N(C)C(=O)CN(C)C(=O)[C@@H]1CN1Cc1ccccc1)C(=O)N1CCC[C@H](N1)C(=O)OCC(C)(C)C2 (stereo partly shown) [Example 10] | 10 to 100 | 1000 to 10000 | < 5000
CCn1c(-c2cnccc2COC)c2c3cc(ccc31)-c1cc(O)cc(c1)C[C@H](NC(=O)[C@H](C(C)C)N(C)C(=O)CN(C)C(=O)C1CN1)C(=O)N1CCC[C@H](N1)C(=O)OCC(C)(C)C2 (stereo partly shown) [Example 33] | 10 to 100 | – | < 5000
CCn1c(-c2cnccc2COC)c2c3cc(ccc31)-c1cc(O)cc(c1)C[C@H](NC(=O)[C@H](C(C)C)N(C)C(=O)CN(C)C(=O)[C@@H]1N[C@@H]1C(=O)OC)C(=O)N1CCC[C@H](N1)C(=O)OCC(C)(C)C2 [Example 49, methyl (2S,3R)-3-((2-(((2S)-1-(((6^3S,4S)-1^1-ethyl-25-hydroxy-1^2-(4-(methoxymethyl)pyridin-3-yl)-10,10-dimethyl-5,7-dioxo-6^1,6^2,6^3,6^4,6^5,6^6-hexahydro-1^1H-8-oxa-1 (5,3)-indola-6 (1,3)-pyridazina-2 (1,3)-benzenacycloundecaphane-4-yl)amino)-3-methyl-1-oxobutan-2-yl) (methyl)amino)-2-oxoethyl) (methyl)carbamoyl) aziridine-2-carboxylate] | 1000 to 10000 | 1000 to 10000 | < 5000
CCn1c(-c2cccnc2[C@H](C)OC)c2c3cc(ccc31)-c1cc(O)cc(c1)C[C@H](NC(=O)[C@H](C(C)C)N(C)C(=O)CN(C)C(=O)[C@@H]1N[C@H]1COC)C(=O)N1CCC[C@H](N1)C(=O)OCC(C)(C)C2 [Example 85] | 10 to 100 | 1000 to 10000 | < 5000
CCn1c(-c2cccnc2[C@H](C)OC)c2c3cc(ccc31)-c1cc(O)cc(c1)C[C@H](NC(=O)[C@H](C(C)C)N(C)C(=O)CN(C)C(=O)C1CN1CCOC)C(=O)N1CCC[C@H](N1)C(=O)OCC(C)(C)C2 (stereo partly shown) [Example 90] | < 10 | 100 to 1000 | < 5000
CCn1c(-c2cccnc2[C@H](C)OC)c2c3cc(ccc31)-c1cc(O)cc(c1)C[C@H](NC(=O)[C@H](C1CCCC1)N(C)C(=O)CN(C)C(=O)[C@H]1CN1)C(=O)N1CCC[C@H](N1)C(=O)OCC(C)(C)C2 [Example 95, (2R)—N-(2-(((1S)-1-cyclopentyl-2-(((6^3S,4S)-1^1-ethyl-25-hydroxy-1^2-(2-((S)-1-methoxyethyl)pyridin-3-yl)-10,10-dimethyl-5,7-dioxo-61,62,63,64,65,66-hexahydro-1^1H-8-oxa-1 (5,3)-indola-6 (1,3)-pyridazina-2 (1,3)-benzenacycloundecaphane-4-yl)amino)-2-oxoethyl) (methyl)amino)-2-oxoethyl)-N-methylaziridine-2-carboxamide] | < 10 | 10 to 100 | < 5000
CCn1c(-c2cccnc2[C@H](C)OC)c2c3cc(ccc31)-c1cc(O)cc(c1)C[C@H](NC(=O)[C@H](C(C)C)N(C)C(=O)CN(C)C(=O)[C@H]1CN1CCO)C(=O)N1CCC[C@H](N1)C(=O)OCC(C)(C)C2 (stereo partly shown) [Example 161] | – | 1000 to 10000 | < 5000
CCn1c(-c2cccnc2[C@H](C)OC)c2c3cc(ccc31)-c1cc(O)cc(c1)C[C@H](NC(=O)[C@H](C(C)C)N(C)C(=O)CN(C)C(=O)[C@@H]1CN1CCO)C(=O)N1CCC[C@H](N1)C(=O)OCC(C)(C)C2 (stereo partly shown) [Example 162] | – | 1000 to 10000 | < 5000
CCn1c(-c2cccnc2[C@H](C)OC)c2c3cc(ccc31)-c1cc(O)cc(c1)C[C@H](NC(=O)[C@H](C(C)C)N(C)C(=O)CN(C)C(=O)[C@H]1CN1CCCN1CCCC1=O)C(=O)N1CCC[C@H](N1)C(=O)OCC(C)(C)C2 (stereo partly drawn) [Example 268, (2R)—N-(2-(((2S)-1-(((6^3S,4S)-1^1-ethyl-25-hydroxy-1^2-(2-((S)-1-methoxyethyl)pyridin-3-yl)-10,10-dimethyl-5,7-dioxo-6^1,6^2,6^3,6^4,6^5,6^6-hexahydro-1^1H-8-oxa-1 (5,3)-indola-6 (1,3)-pyridazina-2 (1,3)-benzenacycloundecaphane-4-yl)amino)-3-methyl-1-oxobutan-2-yl) (methyl)amino)-2-oxoethyl)-N-methyl-1-(3-(2-oxopyrrolidin-1-yl)propyl) aziridine-2-carboxamide] | – | 1000 to 10000 | < 5000
CCn1c(-c2cccnc2[C@H](C)OC)c2c3cc(ccc31)-c1cc(O)cc(c1)C[C@H](NC(=O)[C@H](C(C)C)N(C)C(=O)CN(C)C(=O)[C@@H]1CN1CC(=O)N(C)C)C(=O)N1CCC[C@H](N1)C(=O)OCC(C)(C)C2 (stereo partly shown) [Example 271] | – | > 10000 | < 5000
CCn1c(-c2cccnc2[C@H](C)OC)c2c3cc(ccc31)-c1cc(O)cc(c1)C[C@H](NC(=O)[C@H](C(C)C)N(C)C(=O)CN(C)C(=O)[C@H]1CN1CCCN1CCOC1=O)C(=O)N1CCC[C@H](N1)C(=O)OCC(C)(C)C2 (stereo partly shown) [Example 272] | – | 1000 to 10000 | < 5000
CCn1c(-c2cccnc2[C@H](C)OC)c2c3cc(ccc31)-c1cc(O)cc(c1)C[C@H](NC(=O)[C@H](C(C)C)N(C)C(=O)CN(C)C(=O)[C@H]1CN1C1COC1)C(=O)N1CCC[C@H](N1)C(=O)OCC(C)(C)C2 (stereo partly shown) [Example 275] | – | 1000 to 10000 | < 5000
CCn1c(-c2cccnc2[C@H](C)OC)c2c3cc(ccc31)-c1cc(O)cc(c1)C[C@H](NC(=O)[C@H](C(C)C)N(C)C(=O)CN(C)C(=O)[C@@H]1CN1CC1COC1)C(=O)N1CCC[C@H](N1)C(=O)OCC(C)(C)C2 (stereo partly shown) [Example 278] | – | 1000 to 10000 | < 5000
CCn1c(-c2cccnc2[C@H](C)OC)c2c3cc(ccc31)-c1cc(O)cc(c1)C[C@H](NC(=O)[C@H](C(C)C)N(C)C(=O)CN(C)C(=O)[C@@H]1N[C@@H]1C1COC1)C(=O)N1CCC[C@H](N1)C(=O)OCC(C)(C)C2 [Example 281] | – | 100 to 1000 | < 5000
CCn1c(-c2cccnc2[C@H](C)OC)c2c3cc(ccc31)-c1cc(O)cc(c1)C[C@H](NC(=O)[C@H](C(C)C)N(C)C(=O)CN(C)C(=O)[C@H]1N[C@H]1C1COC1)C(=O)N1CCC[C@H](N1)C(=O)OCC(C)(C)C2 [Example 282] | – | 1000 to 10000 | < 5000
CCn1c(-c2cccnc2[C@H](C)OC)c2c3cc(ccc31)-c1cc(O)cc(c1)C[C@H](NC(=O)[C@H](C(C)C)N(C)C(=O)CN(C)C(=O)[C@H]1N[C@@H]1C1COC1)C(=O)N1CCC[C@H](N1)C(=O)OCC(C)(C)C2 [Example 284] | – | 1000 to 10000 | < 5000
